Where two headings read alike, the source gives them in different places. Values belong to the compound of their own block, whether it stands above or below them.
Columns and labels:
[1] = system: B cell receptor (BCR) signaling; assay: B cell activation assay (flow cytometry), mouse B cells; format: cell-based; conditions: treatment 4 h, IgM stimulation 18 h
Procedure, shortened: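 Compound was present throughout BCR stimulation. Live single lymphocytes were gated into CD20+CD3− B cells and CD3+CD20− T cells by flow cytometry. Geometric MFI of CD86 and CD69 was measured per population, with unstimulated samples defining baseline activation.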

[2] = PK data for BTK CTMs (in vivo plasma concentrations); conditions: for Vd: read-out: Volume of Distribution
Text: The present example evaluates in vivo plasma concentrations of BTK CTMs to develop PK-PD-efficacy relationship and predict human exposure.

primary human T cells = assay: T cell activation assay, CD25 and CD69 staining (flow cytometry); format: cell-based; conditions: for CD25 Staining Anti-CD3/Anti-CD28 Stimulation / CD69 Staining Anti-CD3/Anti-CD28 Stimulation: fold-change of response relative to baseline
Procedure, shortened: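 Primary human T cells stimulated via TCR with anti-CD3/anti-CD28 in the presence of test compound. IL-2 secretion measured by ELISA; surface CD25 and CD69 by flow cytometry. Values are fold-change versus anti-CD3/anti-CD28 stimulation without compound.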

Mino cells = assay: Cell viability assay (CellTiter-Glo), Mino cells; format: cell-based; conditions: for EC50: Homo sapiens; for EC50 / EMAX (% viable cells): Mino cells, treatment time 72 h
Text: This example evaluates effects of CTM-mediated degradation on cell viability. […] Mino and Rec-1 are models of Mantle Cell Lymphoma, which is sensitive to IMiDs.

TEC kinase = molecular target: T1, TEC kinase (Homo sapiens, UniProt P42680); assay: TEC kinase degradation in K562 cells (western blot); format: cell-based; conditions: FIGS. 13A-13D; for effects on TEC kinase levels: four hours, 0.026-2000 nM, western blot
T1 construct: endogenous in cells; host or cells: K562
T1 sequence (P42680 1-631): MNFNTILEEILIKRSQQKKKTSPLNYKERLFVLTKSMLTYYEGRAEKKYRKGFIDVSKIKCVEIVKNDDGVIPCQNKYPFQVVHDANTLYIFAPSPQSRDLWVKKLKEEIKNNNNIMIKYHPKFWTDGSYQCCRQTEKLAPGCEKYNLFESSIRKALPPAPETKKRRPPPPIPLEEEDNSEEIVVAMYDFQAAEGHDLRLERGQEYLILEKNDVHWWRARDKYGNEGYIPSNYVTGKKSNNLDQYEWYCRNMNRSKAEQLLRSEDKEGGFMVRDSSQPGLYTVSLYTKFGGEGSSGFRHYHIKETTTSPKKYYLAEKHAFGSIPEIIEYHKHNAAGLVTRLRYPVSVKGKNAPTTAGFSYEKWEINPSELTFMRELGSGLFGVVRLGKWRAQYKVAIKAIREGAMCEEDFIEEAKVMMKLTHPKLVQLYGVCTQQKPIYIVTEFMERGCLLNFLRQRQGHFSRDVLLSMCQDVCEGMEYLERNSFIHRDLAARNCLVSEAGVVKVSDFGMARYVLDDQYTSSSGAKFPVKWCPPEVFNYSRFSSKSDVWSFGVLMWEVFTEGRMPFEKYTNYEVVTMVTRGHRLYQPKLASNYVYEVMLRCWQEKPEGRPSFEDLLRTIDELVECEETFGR
Method: To determine effects of BTK CTMs on TEC levels in cells, K562 cells were treated for four hours with CTMs at concentrations between 0.026-2000 nM. TEC levels in cell lysate was assessed by western blot.

BTK = BTK (Homo sapiens, UniProt Q06187); assay: BTK degradation (Total BTK HTRF) in Mino cells (Mantle Cell Lymphoma model); format: cell-based; parameters: endogenous in cells; host or cells: TMD8, Mino, Rec-1; conditions: treatment time 4 h
Sequence of BTK (Q06187 whole entry): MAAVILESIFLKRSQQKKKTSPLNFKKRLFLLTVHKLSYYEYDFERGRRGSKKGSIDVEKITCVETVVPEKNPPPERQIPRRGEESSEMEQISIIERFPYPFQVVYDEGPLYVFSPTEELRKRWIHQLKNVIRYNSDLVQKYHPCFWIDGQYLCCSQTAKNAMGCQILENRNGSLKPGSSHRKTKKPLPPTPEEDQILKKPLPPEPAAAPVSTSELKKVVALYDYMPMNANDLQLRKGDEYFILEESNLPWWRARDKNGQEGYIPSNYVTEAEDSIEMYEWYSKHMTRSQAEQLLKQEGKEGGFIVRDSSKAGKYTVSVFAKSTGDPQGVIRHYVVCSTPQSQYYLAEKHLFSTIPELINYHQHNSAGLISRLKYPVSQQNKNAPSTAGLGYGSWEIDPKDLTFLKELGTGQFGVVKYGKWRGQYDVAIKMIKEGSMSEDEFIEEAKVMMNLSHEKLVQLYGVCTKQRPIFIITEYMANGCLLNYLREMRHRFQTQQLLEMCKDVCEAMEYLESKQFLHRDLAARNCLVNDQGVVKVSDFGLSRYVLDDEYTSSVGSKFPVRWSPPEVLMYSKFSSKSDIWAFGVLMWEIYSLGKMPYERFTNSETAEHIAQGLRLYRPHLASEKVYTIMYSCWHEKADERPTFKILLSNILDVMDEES
Method: BTK levels were determined using Cisbio Total-BTK HTRF (Homologous Time-Resolved Fluorescence) kit (63ADK064PEG) according to the manufacturer's protocol. Briefly, cells were incubated in 1× supplied lysis buffer for 30 minutes. In an opaque white low volume 96-well plate (Cisbio, 66PL96005), cell lysate was combined with two different specific BTK antibodies, one conjugated with Eu^3+-Cryptate FRET donor and one conjugated with d2 FRET acceptor. Assay controls include wells containing cell lysate with only the Eu^3+-Cryptate FRET donor antibody and wells containing both HTRF antibodies and lysis buffer without cells or control lysate provided by Cisbio. HTRF ratio was calculated as (acceptor signal at 665 nm/donor signal at 620 nm)×10^4. Background HTRF levels were determined from the control well containing the donor, but no acceptor, antibody. Background HTRF levels were subtracted from all samples. Readouts were reported as HTRF levels relative to HTRF levels of DMSO-treated cells. Four-parameter non-linear regressions were performed in GraphPad Prism 7.02 to obtain DC50 values.
BTK Degradation (Total BTK HTRF) at Four Hours in Mino Cells
This example evaluates the potency of CTMs in a model of Mantle Cell Lymphoma (MCL). To evaluate potential therapeutic indications, BTK CTMs were assayed in models of Mantle Cell Lymphoma as with the TMD8 cells (ABC-DLBCL) above. Tested CTMs had similar potencies for BTK degradation in the MCL cell lines (Mino and Rec-1) and TMD8 cells.

[3] = Rat Sprague-Dawley, 10 mg/kg PO
[4] = Rat Sprague-Dawley, 30 mg/kg PO
[5] = Monkey cynomolgus, 0.75 mg/kg IV

EC50 ([1]; read-out: CD69 EC50): 0.5 nM | EC50 ([1]; read-out: CD86 EC50): 0.9 nM | AUC ([2]; Mouse Balb/c, 1 mg/kg IV): 2.87 µM·h | clearance ([2]; Mouse Balb/c, 1 mg/kg IV): 6.6 mL/min/kg | Vd ([2]; Mouse Balb/c, 1 mg/kg IV): 0.77 L/kg | AUC ([2]; Mouse Balb/c, 30 mg/kg PO): 2.22 µM·h | bioavailability ([2]; Mouse Balb/c, 30 mg/kg PO): 11% | AUC ([2]; Rat Sprague-Dawley, 1 mg/kg IV): 0.919 µM·h | clearance ([2]; Rat Sprague-Dawley, 1 mg/kg IV): 20 mL/min/kg | Vd ([2]; Rat Sprague-Dawley, 1 mg/kg IV): 3.12 L/kg | AUC [2, 3]: 0.083 µM·h | bioavailability [2, 3]: 1% | AUC [2, 4]: 0.73 µM·h
Structure (SMILES): CN1CCN([C@@H]2CCCN(c3cnc(C(N)=O)c(Nc4ccc(C5CCN(CC6CCN(c7ccc(-c8nn(C9CCC(=O)NC9=O)c(=O)n8C)cc7)CC6)CC5)cc4)n3)C2)C1=O (stereo partly shown) [Compound 121]

AUC ([2]; Dog Beagle, 1 mg/kg IV): 0.16 µM·h | clearance ([2]; Dog Beagle, 1 mg/kg IV): 118 mL/min/kg | Vd ([2]; Dog Beagle, 1 mg/kg IV): 56 L/kg | AUC ([2]; Dog Beagle, 10 mg/kg PO): 0.17 µM·h | bioavailability ([2]; Dog Beagle, 10 mg/kg PO): 10% | AUC ([2]; Dog Beagle, 30 mg/kg PO): 0.23 µM·h | AUC [2, 5]: 0.17 µM·h | clearance [2, 5]: 90.9 mL/min/kg | Vd [2, 5]: 16 L/kg | AUC ([2]; Monkey cynomolgus, 10 mg/kg PO): 0.028 µM·h | bioavailability ([2]; Monkey cynomolgus, 10 mg/kg PO): 1% | AUC ([2]; Monkey cynomolgus, 30 mg/kg PO): 0.45 µM·h | AUC ([2]; Mouse Balb/c, 1 mg/kg IV): 3.4 µM·h | clearance ([2]; Mouse Balb/c, 1 mg/kg IV): 6 mL/min/kg | Vd ([2]; Mouse Balb/c, 1 mg/kg IV): 0.72 L/kg | AUC ([2]; Mouse Balb/c, 10 mg/kg PO): 5.81 µM·h | bioavailability ([2]; Mouse Balb/c, 10 mg/kg PO): 17% | AUC ([2]; Mouse Balb/c, 30 mg/kg PO): 2.3 µM·h | AUC ([2]; Mouse CD-1, 1 mg/kg IV): 1.7 µM·h | clearance ([2]; Mouse CD-1, 1 mg/kg IV): 11.6 mL/min/kg | Vd ([2]; Mouse CD-1, 1 mg/kg IV): 1.4 L/kg | AUC ([2]; Mouse CD-1, 10 mg/kg PO): 5.2 µM·h | bioavailability ([2]; Mouse CD-1, 10 mg/kg PO): 33% | AUC ([2]; Rat Sprague-Dawley, 1 mg/kg IV): 0.18 µM·h | clearance ([2]; Rat Sprague-Dawley, 1 mg/kg IV): 99.5 mL/min/kg | Vd ([2]; Rat Sprague-Dawley, 1 mg/kg IV): 32 L/kg | AUC [2, 3]: 0.69 µM·h | bioavailability [2, 3]: 32% | AUC [2, 4]: 1.62 µM·h | bioavailability [2, 4]: 7% | degradation of BTK compared with TEC (TEC kinase): more potent degradation of BTK than TEC | effects on TEC kinase levels (TEC kinase): mild to moderate effects | DC50 (BTK): 0.58 nM
Structure (SMILES): CN1CCN([C@H]2CCCN(c3cnc(C(N)=O)c(Nc4ccc(C5CCN(CC6CCN(c7ccc(C(=O)NC8CCC(=O)NC8=O)nc7)CC6)CC5)cc4)n3)C2)C1=O (stereo partly shown) [Compound 130]
CD25 Staining Anti-CD3/Anti-CD28 Stimulation (primary human T cells; 1.4 nM): 1.02 | CD69 Staining Anti-CD3/Anti-CD28 Stimulation (primary human T cells; 1.4 nM): 1.00 | CD25 Staining Anti-CD3/Anti-CD28 Stimulation (primary human T cells; 37 nM): 0.98 | CD69 Staining Anti-CD3/Anti-CD28 Stimulation (primary human T cells; 37 nM): 0.96 | CD25 Staining Anti-CD3/Anti-CD28 Stimulation (primary human T cells; 333 nM): 0.55 | CD69 Staining Anti-CD3/Anti-CD28 Stimulation (primary human T cells; 333 nM): 0.55 | EC50 (Mino cells): 176 nM | EMAX (% viable cells) (Mino cells): 78%

Structure (SMILES): NC(=O)c1ncc(N2CCCCC2)nc1Nc1ccc(C2CCN(C[C@@H]3CCN(c4ccc5c(c4)C(=O)N(C4CCC(=O)NC4=O)C5=O)C3)CC2)cc1 (stereo partly shown) [Compound 149]
CD25 Staining Anti-CD3/Anti-CD28 Stimulation (primary human T cells; 1.4 nM): 1.31 | CD69 Staining Anti-CD3/Anti-CD28 Stimulation (primary human T cells; 1.4 nM): 1.22 | CD25 Staining Anti-CD3/Anti-CD28 Stimulation (primary human T cells; 37 nM): 1.02 | CD69 Staining Anti-CD3/Anti-CD28 Stimulation (primary human T cells; 37 nM): 0.93 | CD25 Staining Anti-CD3/Anti-CD28 Stimulation (primary human T cells; 333 nM): 0.61 | CD69 Staining Anti-CD3/Anti-CD28 Stimulation (primary human T cells; 333 nM): 0.63 | expression of CD25 and CD69 compared to baseline (anti-CD3/anti-CD28 stimulation alone) (primary human T cells; primary human T cells): unchanged or decreased levels | EC50 (Mino cells): 3.4 nM | potency on cell viability compared with compound 130 (Mino cells; MCL cell lines (Mino and Rec-1)): more potent | EMAX (% viable cells) (Mino cells): 50% | AUC ([2]; Dog Beagle, 1 mg/kg IV): 1.2 µM·h | clearance ([2]; Dog Beagle, 1 mg/kg IV): 18.4 mL/min/kg | Vd ([2]; Dog Beagle, 1 mg/kg IV): 7 L/kg | AUC ([2]; Dog Beagle, 10 mg/kg PO): 0.11 µM·h | bioavailability ([2]; Dog Beagle, 10 mg/kg PO): 0.9% | AUC ([2]; Monkey cynomolgus, 1 mg/kg IV): 1 µM·h | clearance ([2]; Monkey cynomolgus, 1 mg/kg IV): 22.2 mL/min/kg | Vd ([2]; Monkey cynomolgus, 1 mg/kg IV): 7.5 L/kg | AUC ([2]; Monkey cynomolgus, 10 mg/kg PO): 0.09 µM·h | bioavailability ([2]; Monkey cynomolgus, 10 mg/kg PO): 0.8% | AUC ([2]; Monkey cynomolgus, 30 mg/kg PO): 0.08 µM·h | AUC ([2]; Mouse Balb/c, 1 mg/kg IV): 4.5 µM·h | clearance ([2]; Mouse Balb/c, 1 mg/kg IV): 5.2 mL/min/kg | Vd ([2]; Mouse Balb/c, 1 mg/kg IV): 1 L/kg | AUC ([2]; Mouse Balb/c, 10 mg/kg PO): 16 µM·h | bioavailability ([2]; Mouse Balb/c, 10 mg/kg PO): 35% | AUC ([2]; Mouse Balb/c, 30 mg/kg PO): 27.7 µM·h | bioavailability ([2]; Mouse Balb/c, 30 mg/kg PO): 1% | AUC ([2]; Mouse Balb/c, 90 mg/kg PO): 37.5 µM·h | bioavailability ([2]; Mouse Balb/c, 90 mg/kg PO): 1% | AUC ([2]; Mouse CD-1, 1 mg/kg IV): 1.8 µM·h | clearance ([2]; Mouse CD-1, 1 mg/kg IV): 12.6 mL/min/kg | Vd ([2]; Mouse CD-1, 1 mg/kg IV): 1.5 L/kg | AUC ([2]; Mouse CD-1, 10 mg/kg PO): 11.5 µM·h | bioavailability ([2]; Mouse CD-1, 10 mg/kg PO): 64% | AUC ([2]; Rat Sprague-Dawley, 1 mg/kg IV): 1.2 µM·h | clearance ([2]; Rat Sprague-Dawley, 1 mg/kg IV): 19 mL/min/kg | Vd ([2]; Rat Sprague-Dawley, 1 mg/kg IV): 2.8 L/kg | AUC [2, 3]: 0.88 µM·h | bioavailability [2, 3]: 7% | degradation of BTK compared with TEC (TEC kinase): more potent degradation of BTK than TEC | effects on TEC kinase levels (TEC kinase): mild to moderate effects | DC50 (BTK): 5.9 nM
